Measured values: publication PMC9688344, “[^225Ac]Ac-SibuDAB for Targeted Alpha Therapy of Prostate Cancer: Preclinical Evaluation and Comparison with [^225Ac]Ac-PSMA-617” (Cancers, 2022)

How the values were obtained:
[1] = test system: PSMA-negative PC-3 flu tumors; experiment: Therapy study in PC-3 flu tumor-bearing mice; format: in vivo, BALB/c nude mice; conditions: 30 kBq
Method: Five days after subcutaneous inoculation of four groups of mice with either PC-3 PIP or PC-3 flu tumor cells on the right shoulder (4 × 10^6 cells in 100 μL HBSS), the mice were intravenously injected with either vehicle only (saline with 0.05% BSA, n = 6 and n = 4, respectively) or with 30 kBq [^225Ac]Ac-SibuDAB (1 nmol per mouse; n = 4 per group) diluted in vehicle (Table 1).
(§1) After administration of the radioligands, the mice were monitored over 8 weeks using the same measures as previously published by Umbricht et al.. The relative body mass was defined as [BMx/BM0], where BMx is the body mass in grams at a given Day x and BM0 is the body mass in grams at Day 0. The tumor dimension was determined by measuring the longest tumor axis (L) and its perpendicular axis (W) with a digital caliper. The tumor volume (V) was calculated according to the equation [V = 0.5 × (LW^2)]. The relative tumor volume was defined as [TVx/TV0], where TVx is the tumor volume in mm^3 at a given Day x, and TV0 is the tumor volume in mm^3 at Day 0. Endpoint criteria that required euthanasia were defined as (i) body mass loss of >15%, (ii) a tumor volume of >800 mm^3, (iii) a combination of body mass loss of >10% and a tumor volume of >700 mm^3 or, (iv) signs of unease and pain or a combination thereof using a scoring system as previously reported. The median survival of mice of each group was assessed with Kaplan–Meier curves. Potential early side effects for mice that survived until study end were determined based on blood chemistry and organ-to-brain mass ratios on Day 56 by comparison to values obtained from an additional group of therapy-naïve mice (n = 4) without tumors but of the same age (Supplementary Material: Section S9).

[2] = test system: BALB/c nude mice; experiment: Comparison of treated (cured) therapy mice with healthy mice at study end; format: in vivo
Method: as §1, with “S9). […]” for “S9).”
10. Comparison of [225Ac]Ac-SibuDAB-Treated Mice with Healthy Mice at Study End Purpose: To investigate whether a successful tumor treatment with [225Ac]Ac- […]
compared to treatment-naïve, non-tumor-bearing mice on Day 56.
Methods: In order to assess the tolerability of the treatment, the body mass, the organ masses and organ-to-brain mass ratios as well as blood chemistry of the cured mice were compared to those of healthy, non-tumor-bearing BALB/c nude mice on Day 56.
Results: Survival: Targeted alpha therapy using [225Ac]Ac-SibuDAB was very effec-tive and all mice treated with 5 kBq, 10 kBq or 30 kBq of this radioligand survived until […]
Body Mass: The body mass of mice that were effectively treated with [225Ac]Ac-SibuDAB was in the same range as for healthy, non-tumor-bearing control mice at the end of the study on Day 56 (p>0.05) ( Table S11).

CC(C)Cc1ccc(C(C)C(=O)NC(CCN)C(=O)NCCCCC(NC(=O)CN2CCN(CC(=O)[O-])CCN(CC(=O)[O-])CCN(CC(=O)[O-])CC2)C(=O)NCC2CCC(C(=O)NC(Cc3ccc4ccccc4c3)C(=O)NCCCCC(NC(=O)NC(CCC(=O)O)C(=O)O)C(=O)O)CC2)cc1.[225Ac+3] (centres unmarked) [[^225Ac]Ac-SibuDAB] was tested, and the “Day of first endpoint” value [1] was 18, the “Day of last endpoint” value [1] was 27 and the “Median Survival” value [1] was 25 days. The “Number of Mice Alive on Day 56” value [1] was 0/4, the Tumor growth delay [1] was “not significantly delay the growth” and the ALB ([2]; Day 56, 5 kBq) was 25 ± 2 g/L. It also gave an ALP ([2]; Day 56, 5 kBq) of 93 ± 10 U/L, a BUN ([2]; Day 56, 5 kBq) of 6.4 ± 1.2 mmol/L and a Brain mass ([2]; Day 56, 5 kBq) of 403 ± 14 mg. The Kidney mass ([2]; Day 56, 5 kBq) was 252 ± 15 mg, the Kidney-to-brain mass ratio ([2]; Day 56, 5 kBq) was 0.63 ± 0.03 and the Liver mass ([2]; Day 56, 5 kBq) was 1079 ± 47 mg. The Liver-to-brain mass ratio ([2]; Day 56, 5 kBq) was 2.7 ± 0.1, the “RBM (relative body mass)” value ([2]; Day 56, 5 kBq) was 1.13 ± 0.05 and the Spleen mass ([2]; Day 56, 5 kBq) was 113 ± 17 mg. It also gave a Spleen-to-brain mass ratio ([2]; Day 56, 5 kBq) of 0.28 ± 0.04, a TBIL ([2]; Day 56, 5 kBq) of 4.0 ± 0.9 µmol/L and an ALB ([2]; Day 56, 10 kBq) of 26 ± 2 g/L. The ALP ([2]; Day 56, 10 kBq) was 85 ± 7 U/L, the BUN ([2]; Day 56, 10 kBq) was 7.3 ± 0.8 mmol/L and the Brain mass ([2]; Day 56, 10 kBq) was 384 ± 18 mg. The Kidney mass ([2]; Day 56, 10 kBq) was 260 ± 11 mg, the Kidney-to-brain mass ratio ([2]; Day 56, 10 kBq) was 0.68 ± 0.04 and the Liver mass ([2]; Day 56, 10 kBq) was 1139 ± 83 mg. For the same compound, the Liver-to-brain mass ratio ([2]; Day 56, 10 kBq) was 3.0 ± 0.2, the “RBM (relative body mass)” value ([2]; Day 56, 10 kBq) was 1.12 ± 0.03 and the Spleen mass ([2]; Day 56, 10 kBq) was 116 ± 32 mg. It also gave a Spleen-to-brain mass ratio ([2]; Day 56, 10 kBq) of 0.31 ± 0.09, a TBIL ([2]; Day 56, 10 kBq) of 3.2 ± 0.4 µmol/L and an ALB ([2]; Day 56, 30 kBq) of 22 ± 1 g/L. For the same compound, the ALP ([2]; Day 56, 30 kBq) was 83 ± 2 U/L, the “Adverse events in cured mice compared to healthy mice” value ([2]; Day 56, 30 kBq) was “No obvious adverse events” and the BUN ([2]; Day 56, 30 kBq) was 7.2 ± 0.7 mmol/L. The Brain mass ([2]; Day 56, 30 kBq) was 408 ± 16 mg, the Kidney mass ([2]; Day 56, 30 kBq) was 252 ± 24 mg and the Kidney-to-brain mass ratio ([2]; Day 56, 30 kBq) was 0.62 ± 0.05. The Liver mass ([2]; Day 56, 30 kBq) was 1096 ± 79 mg, the Liver-to-brain mass ratio ([2]; Day 56, 30 kBq) was 2.7 ± 0.2 and the “RBM (relative body mass)” value ([2]; Day 56, 30 kBq) was 1.11 ± 0.02. For the same compound, the Spleen mass ([2]; Day 56, 30 kBq) was 127 ± 23 mg, the Spleen-to-brain mass ratio ([2]; Day 56, 30 kBq) was 0.31 ± 0.07 and the TBIL ([2]; Day 56, 30 kBq) was 4.3 ± 0.5 µmol/L. The Kidney-to-brain mass ratio ([2]; cured mice, Day 56, range over groups) was 0.62–0.68 and the “Tolerability of therapy (body mass increasing over time)” value ([2]; effectively treated PC-3 PIP tumor-bearing mice) was “well tolerated”.
